Laboratory results from patent publication US20120295914A1, “COMBINATION OF ADRENERGIC RECEPTOR AGONIST ALPHA-1 OR ALPHA-2, PREFERABLY BRIMONIDINE WITH FILLERS, PREFERABLY HYALURONIC ACID” (Galderma Research & Development, priority 2009, published 2012).

Key:
α2A-adrenoceptor = α2A-adrenoceptor (Sus scrofa, UniProt P18871); conditions: porcine species; Wikberg-Matsson and Simonsen 2001; cited from earlier work
[1] = in vivo; cited from earlier work
[2] = test system: dermabraded skin (cutaneous reactions, redness/bleeding)
Excerpt: In Vivo Dermabrasion Assays in Minipig Minizone Model Using a BURANE XL Laser and Skin Interaction with Brimonidine Gel
The objectives of this study were to assess the local dermal effect of single dermal application of Brimonidine Gel placebo or 1% applied on delimited abraded mini-zone (2.8 cm^2 and different dermabraded skin conditions) in the Gottingen® minipig.
One female Göttingen® minipig (naïve), between 4 and 8 months old, received Dermal (topical) application of Brimonidine Gel at 1% on delimited mini-zones (2.8 cm^2, using a Ringflost®).
each zone is clipped free from hair. On the clipped area (dorsum, avoiding the spinal column and the intra-scapular area), 4 minizones (2 on either side) is delimited using Ringflost® and surrounded with an indelible pen.
The animal is anesthetized (Zoletil®) before dermabrasion. Each minizone is disinfected with chlorexidine. The experimental conditions used for each zone is set as follows:
The Brimonidine gel 1% is gently applied 5 minutes prior to the dermabrasion procedure.
The cutaneous reaction is evaluated immediately, and 2-5 and 10 minutes after the dermabrasion procedure. The skin is examined to evaluate the degree of erythema, edema, desquamation, scab formation and any other lesions. Cutaneous reaction is evaluated according to the grading scale describe in “OCDE Guideline No. 404. Acute dermal irritation/corrosion”. […]

α2A-adrenoceptor, sequence (P18871 whole entry): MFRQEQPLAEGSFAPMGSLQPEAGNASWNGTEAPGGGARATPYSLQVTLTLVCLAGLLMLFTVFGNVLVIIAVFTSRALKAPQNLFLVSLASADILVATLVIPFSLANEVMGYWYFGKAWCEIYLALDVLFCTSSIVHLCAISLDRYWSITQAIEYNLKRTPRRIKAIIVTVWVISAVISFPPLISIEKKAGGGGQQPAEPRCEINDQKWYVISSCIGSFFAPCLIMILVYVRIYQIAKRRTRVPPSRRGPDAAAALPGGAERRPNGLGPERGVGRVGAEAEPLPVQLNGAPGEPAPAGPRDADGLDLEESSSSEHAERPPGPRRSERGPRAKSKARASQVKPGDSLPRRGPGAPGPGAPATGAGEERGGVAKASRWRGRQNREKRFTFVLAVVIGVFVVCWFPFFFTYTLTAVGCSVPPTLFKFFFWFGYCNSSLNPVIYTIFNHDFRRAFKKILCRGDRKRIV

## Brc1c(NC2=NCCN2)ccc2nccnc12 [Brimonidine, (5-Bromo-quinoxalin-6-yl)-(4,5-dihydro-1H-imidazol-2-yl)-amine]
α2A-adrenoceptor
  vasoconstrictor activity: potent vasoconstrictor
[1]
  half-life: 4 h
[2]; Brimonidine gel 1% topical on dermabraded minizones, conclusion of Example 3
  cutaneous reactions (bruising or bleeding) during aesthetic or surgery procedures: capable of decreasing cutaneous reactions
[2]; Brimonidine gel 1% topical, applied 5 minutes prior to dermabrasion, 10 j/cm2, 6 passes, treated zone Z4 vs non-treated Z3, one female minipig
  vasoconstrictor effect (comparative analysis of pictures Z3 vs Z4): visually more evident starting from 5 min post-dermabrasion until 14 min and beyond
